Experiment [1] concerns the target SARS−CoV−2 Spike RBD (Severe acute respiratory syndrome coronavirus 2, UniProt P0DTC2). The experiment can be described thus: biochemical. Type of experiment: binding.
The target of experiment [2] is SARS-CoV-2 Spike receptor-binding domain (residues N334-P527) (SARS-CoV-2 (isolate Wuhan-Hu-1)) (UniProt P0DTC2). In words: MST.

Experimental findings from article PMC8304516, “A Fungal Defensin Targets the SARS−CoV−2 Spike Receptor−Binding Domain” (Journal of Fungi, 2021) are described below.

Read-outs that look alike come from different tables or passages of the source. Bridge positions count the residues as written; N and C are the ends. Peptide text beside a SMILES is read from it.

What is called Kd is the equilibrium constant for the complex coming apart. As to `CC[C@H](C)[C@@H]1NC(=O)[C@H](CO)NC(=O)[C@H](CC(C)C)NC(=O)[C@@H]2CSSC[C@@H](C(=O)NCC(=O)N[C@@H](CCCCN)C(=O)N[C@@H](CCC(N)=O)C(=O)O)NC(=O)[C@H]([C@@H](C)O)NC(=O)[C@@H]3CSSC[C@H](NC(=O)[C@H](CCC(=O)O)NC(=O)[C@H](CC(N)=O)NC(=O)[C@H](CCC(=O)O)NC(=O)[C@H](CC(N)=O)NC(=O)[C@H](Cc4ccccc4)NC(=O)[C@@H]4CCCN4C(=O)[C@@H](NC(=O)CNC(=O)[C@H](Cc4ccccc4)NC(=O)CN)CSSC[C@H](NC(=O)[C@H](Cc4ccccc4)NC(=O)CNC(=O)[C@H](Cc4ccccc4)NC(=O)[C@H](CCCCN)NC(=O)[C@H](CCCNC(=N)N)NC(=O)CNC1=O)C(=O)N[C@@H](C)C(=O)NCC(=O)N1CCC[C@H]1C(=O)N[C@@H](CC(C)C)C(=O)N[C@@H](CCCNC(=N)N)C(=O)N[C@@H](C)C(=O)N[C@@H]([C@@H](C)O)C(=O)N3)C(=O)N[C@@H](Cc1c[nH]cn1)C(=O)N[C@@H](C)C(=O)N[C@@H](Cc1c[nH]cn1)C(=O)N2` [micasin] (H-GFGCPFNENECHAHCLSIGRKFGFCAGPLRATCTCGKQ-OH; disulfide 4-25, 11-33, 15-35), the Kd in experiment [1] (KD, SD) is 5.04 ± 0.96 µM.
In the case of `CC[C@H](C)[C@@H]1NC(=O)[C@H](CO)NC(=O)[C@H](CC(C)C)NC(=O)[C@@H]2CSSC[C@@H](C(=O)NCC(=O)N[C@@H](CCCCN)C(=O)N[C@@H](CCC(N)=O)C(=O)O)NC(=O)[C@H]([C@@H](C)O)NC(=O)[C@@H]3CSSC[C@H](NC(=O)[C@H](CCC(=O)O)NC(=O)[C@H](CC(N)=O)NC(=O)[C@H](CCCNC(=N)N)NC(=O)[C@H](CC(N)=O)NC(=O)[C@H](Cc4ccccc4)NC(=O)[C@@H]4CCCN4C(=O)[C@@H](NC(=O)CNC(=O)[C@H](Cc4ccccc4)NC(=O)CN)CSSC[C@H](NC(=O)[C@H](Cc4ccccc4)NC(=O)CNC(=O)[C@H](Cc4ccccc4)NC(=O)[C@H](CCCCN)NC(=O)[C@H](CCCNC(=N)N)NC(=O)CNC1=O)C(=O)N[C@@H](C)C(=O)NCC(=O)N1CCC[C@H]1C(=O)N[C@@H](CC(C)C)C(=O)N[C@@H](CCCNC(=N)N)C(=O)N[C@@H](C)C(=O)N[C@@H]([C@@H](C)O)C(=O)N3)C(=O)N[C@@H](Cc1c[nH]cn1)C(=O)N[C@@H](C)C(=O)N[C@@H](Cc1c[nH]cn1)C(=O)N2` [rE8R] (H-GFGCPFNRNECHAHCLSIGRKFGFCAGPLRATCTCGKQ-OH; disulfide 4-25, 11-33, 15-35), the Kd in experiment [1] (n = 2, read-out: KD) was 1.92 µM.
For the molecule recombinant micasin E8K (peptide), the Kd in experiment [2] is 1.9 µM.
For `CC[C@H](C)[C@@H]1NC(=O)[C@H](CO)NC(=O)[C@H](CC(C)C)NC(=O)[C@@H]2CSSC[C@@H](C(=O)NCC(=O)N[C@@H](CCCCN)C(=O)N[C@@H](CCC(N)=O)C(=O)O)NC(=O)[C@H]([C@@H](C)O)NC(=O)[C@@H]3CSSC[C@H](NC(=O)[C@H](CCC(=O)O)NC(=O)[C@H](CC(N)=O)NC(=O)[C@H](CCCNC(=N)N)NC(=O)[C@H](CC(N)=O)NC(=O)[C@H](Cc4ccccc4)NC(=O)[C@@H]4CCCN4C(=O)[C@@H](NC(=O)CNC(=O)[C@H](Cc4ccccc4)NC(=O)CN)CSSC[C@H](NC(=O)[C@H](Cc4ccccc4)NC(=O)CNC(=O)[C@H](Cc4ccccc4)NC(=O)[C@H](CCCCN)NC(=O)[C@H](CCCNC(=N)N)NC(=O)CNC1=O)C(=O)N[C@@H](C)C(=O)NCC(=O)N1CCC[C@H]1C(=O)N[C@@H](CC(C)C)C(=O)N[C@@H](CCCNC(=N)N)C(=O)N[C@@H](C)C(=O)N[C@@H]([C@@H](C)O)C(=O)N3)C(=O)N[C@@H](Cc1c[nH]cn1)C(=O)N[C@@H](C)C(=O)N[C@@H](Cc1c[nH]cn1)C(=O)N2` [E8R] (H-GFGCPFNRNECHAHCLSIGRKFGFCAGPLRATCTCGKQ-OH; disulfide 4-25, 11-33, 15-35), the dissociation constant (Kd) in experiment [1] (KD, SD) came out at 0.72 ± 0.22 µM.
